Measurements taken from patent EP0126348A2, “Composition for rectal administration and method of promoting rectal drug absorption” (priority 1983, dated 1984).
Like-named read-outs stand apart in the source and are kept apart here. Blank lines part the entries; values can stand above or below the molecule they belong to.

How the values were obtained:
[1] = Blood concentration of drug after rectal administration of suppositories to fasted dogs (bioassay); assay type: in vivo; conditions: rectal suppository, 100 mg in potency
Description: (§1) The suppositories were administered rectally to dogs or rabbits fasted for 24 hours. After administration, blood or urine sampling was conducted at times intervals and the drug concentration in blood or urinary drug excretion was estimated by determining the activity concentration by the bioassay method.

[2] = Urinary excretion of drug after rectal administration of suppositories to fasted rabbits (bioassay); assay type: in vivo; conditions: rabbit, 100 mg, rectal suppository, 100 mg in potency, read-out: Urinary excretion (0-6 hours)
Description: as §1

[3] = in vivo, base WITEPSOL H-5, additive Na caprate, 3%
[4] = dog, blood, 100 mg, base WITEPSOL H-5, additive Na caprate, 3% NIKKOL MYS-40, 4%, read-out: AUC

Molecule: NCC[C@H](O)C(=O)N[C@@H]1C[C@H](N)[C@@H](O[C@H]2O[C@H](CN)[C@@H](O)[C@H](O)[C@H]2O)[C@H](O)[C@H]1O[C@H]1O[C@H](CO)[C@@H](O)[C@H](N)[C@H]1O [Amikacin]
AUC ([1]; dog, in vivo, 100 mg, base WITEPSOL H-15, additive Na caprate, 3% NIKKOL BL-21, 3%, read-out: AUC): 17900 ng·h/mL
AUC ([1]; dog, in vivo, 100 mg, base WITEPSOL H-15, additive None, read-out: AUC): 1000 ng·h/mL
dose excreted at 6 h ([2]; in vivo, base WITEPSOL H-5, additive Na caprate, 3% NIKKOL MYS-40, 4%): 56%
dose excreted at 6 h ([2]; in vivo, base WITEPSOL H-5, additive Na caprate, 3% Sodium carbonate, 4%): 55.5%
dose excreted at 6 h [2, 3]: 35%

dose excreted at 6 h ([2]; urine, base WITEPSOL W-35, additive Glycerol monostearate, 3% Na caprate, 3%): 48.5%
dose excreted at 6 h ([2]; urine, base WITEPSOL W-35, additive Na caprate, 3% Disodium phosphate,3%): 40%
dose excreted at 6 h ([2]; urine, base WITEPSOL W-35, additive Na caprate, 3%): 30.1%
Molecule: NC[C@H]1O[C@H](O[C@H]2[C@H](O)[C@@H](O[C@H]3O[C@H](CO)[C@@H](O)[C@H](N)[C@H]3O)[C@H](N)C[C@@H]2N)[C@H](N)[C@@H](O)[C@@H]1O [Bekanamycin]

AUC [1, 4]: 22200 ng·h/mL
Molecule: CO/N=C(\C(=O)N[C@@H]1C(=O)N2C(C(=O)O)=C(CSc3nc(=O)c(=O)[nH]n3C)CS[C@H]12)c1csc(N)n1 [Cefatriaxone]

Molecule: CC(C)(O/N=C(\C(=O)N[C@@H]1C(=O)N2C(C(=O)[O-])=C(C[n+]3ccccc3)CS[C@H]12)c1csc(N)n1)C(=O)O [Ceftazidime]
AUC ([1]; dog, in vivo, 100 mg, base WITEPSOL H-5, additive Na caprate, 3% Lysine, 4%, read-out: AUC): 30100 ng·h/mL
AUC ([1]; dog, in vivo, 100 mg, base WITEPSOL H-5, additive Na caprate, 3% Na citrate, 4%, read-out: AUC): 27600 ng·h/mL
AUC ([1]; dog, in vivo, 100 mg, base WITEPSOL H-5, additive Na caprate, 3% Sodium carbonate, 4%, read-out: AUC): 29800 ng·h/mL
AUC ([1]; base WITEPSOL H-5, additive Na caprate, 3% Sodium carbonate, 4%): 30900 ng·h/mL

AUC ([1]; dog, blood, 100 mg, base WITEPSOL H-5, additive NIKKOL MYS-40, 4%, read-out: AUC): 1000 ng·h/mL
AUC ([1]; dog, blood, 100 mg, base WITEPSOL H-5, additive Na caprate, 3% NIKKOL BL-21, 4% Disodium hydrogen phosphate, 1%, read-out: AUC): 42000 ng·h/mL
AUC ([1]; dog, blood, 100 mg, base WITEPSOL H-5, additive Na caprate, 3% NIKKOL BL-21, 4%, read-out: AUC): 37000 ng·h/mL
AUC ([1]; dog, blood, 100 mg, base WITEPSOL H-5, additive Na caprate, 3% NIKKOL MYS-40, 4% Sodium carbonate, 4%, read-out: AUC): 39900 ng·h/mL
AUC [1, 4]: 27400 ng·h/mL
AUC ([1]; dog, blood, 100 mg, base WITEPSOL H-5, additive Na caprate, 3% Sodium carbonate, 4%, read-out: AUC): 24400 ng·h/mL
AUC ([1]; dog, blood, 100 mg, base WITEPSOL H-5, additive Na caprate, 3%, read-out: AUC): 14400 ng·h/mL
AUC ([1]; dog, blood, 100 mg, base WITEPSOL H-5, additive None, read-out: AUC): 800 ng·h/mL
Molecule: NC[C@@H]1CC[C@@H](N)[C@@H](O[C@H]2[C@H](O)[C@@H](O[C@H]3O[C@H](CO)[C@@H](O)[C@H](N)[C@H]3O)[C@H](N)C[C@@H]2N)O1 [Dibekacin]

Molecule: CNC[C@@H]1CC[C@@H](N)[C@@H](O[C@H]2[C@H](O)[C@@H](O[C@H]3OC[C@](C)(O)[C@H](NC)[C@H]3O)[C@H](N)C[C@@H]2N)O1 [Micronomicin]
dose excreted at 6 h ([2]; in vivo, base WITEPSOL H-5, additive Na caprate, 3% Arginine Na, 4%): 48.2%
dose excreted at 6 h ([2]; in vivo, base WITEPSOL H-5, additive Na caprate, 3% NIKKOL BL-21, 4%): 50.3%
dose excreted at 6 h [2, 3]: 39.2%

dose excreted at 6 h ([2]; urine, base WITEPSOL H-5, additive Na caprate, 3% Lysine, 4%): 48%
dose excreted at 6 h ([2]; urine, base WITEPSOL H-5, additive Na caprate, 3% NIKKOL TO-10M, 4%): 52.6%
dose excreted at 6 h ([2]; urine, base WITEPSOL H-5, additive Na caprate, 3%): 40%
Molecule: CCN[C@@H]1C[C@H](N)[C@@H](O[C@H]2OC(CN)=CC[C@H]2N)[C@H](O)[C@H]1O[C@H]1OC[C@](C)(O)[C@H](NC)[C@H]1O [Netilmicin]

dose excreted at 6 h ([2]; urine, base WITEPSOL H-15, additive Na caprate, 2% NIKKOL BL-25, 4%): 51.6%
dose excreted at 6 h ([2]; urine, base WITEPSOL H-15, additive Na caprate, 2%): 30.8%
dose excreted at 6 h ([2]; urine, base WITEPSOL H-15, additive Na caprate, 3% Trisodium phosphate,4%): 55%
Molecule: CN[C@@H]1[C@@H](O)[C@@H](O[C@@H]2[C@@H](O)[C@H](O[C@H]3OC(CN)=CC[C@H]3N)[C@@H](N)C[C@H]2N)OC[C@]1(C)O [Sisomicin]

Molecule: NC[C@H]1O[C@H](O[C@H]2[C@H](O)[C@@H](O[C@H]3O[C@H](CO)[C@@H](O)[C@H](N)[C@H]3O)[C@H](N)C[C@@H]2N)[C@H](N)C[C@@H]1O [Tobramycin]
dose excreted at 6 h ([2]; in vivo, base WITEPSOL W-35, additive Na caprate, 2% NIKKOL BL-9, 4%): 53.8%
dose excreted at 6 h ([2]; in vivo, base WITEPSOL W-35, additive Na caprate, 2%): 41.6%
dose excreted at 6 h ([2]; in vivo, base WITEPSOL W-35, additive Na caprate, 3% Disodium tatrate, 4% NIKKOL BL-9, 4%): 49.2%

AUC ([1]; base WITEPSOL H-5, additive Na caprate, 3%): 14800 ng·h/mL
AUC ([1]; base WITEPSOL H-5, additive Na caprate, 3% NIKKOL BL-21, 4%): 30000 ng·h/mL
AUC ([1]; base WITEPSOL H-5, additive Na caprate, 3% NIKKOL MYS-40, 4%): 21700 ng·h/mL
AUC ([1]; base WITEPSOL H-5, additive Na caprate, 3% Sodium carbonate, 2%): 21700 ng·h/mL
AUC ([1]; base WITEPSOL H-5, additive None): 1200 ng·h/mL
Molecule: Fortimicin
